Results: ChEMBL document CHEMBL1158954, “Anti-AIDS agents, 3. Inhibitory effects of colchicine derivatives on HIV replication in H9 lymphocyte cells” (J Nat Prod, 1991)

Legend:
H9 = assay: Cytotoxicity against human H9 cells; format: ADME, cell-based
H9 (Homo sapiens) = assay: microbe, parasite or virus in culture; details: H9, 72 h

Row | Compound | EC50 (H9) [µM] | IC50 (H9 (Homo sapiens)) [µM]
1 | COc1cc(C(=O)N[C@H]2CCc3cc(OC)c(OC)c(OC)c3-c3ccc(OC)c(=O)cc32)cc(OC)c1OC | 0.02 | 0.04
2 | COc1cc2c(c(OC)c1OC)-c1ccc(OC)c(=O)cc1[C@@H](NC(C)=O)CC2 [COLCHICINE] | 0.01 | 0.018
3 | COc1cc2c(c(OC)c1OC)-c1ccc(=O)c(N(C)C)cc1[C@@H](N)CC2 | > 2.7 | > 2.7
4 | COc1cc2c(c(OC)c1OC)-c1ccc(O)c(=O)cc1[C@@H](N)CC2 | 1.3 | 1.2
5 | O=C(N[C@H]1CCc2cc(O)c(O)c(O)c2-c2ccc(=O)c(O)cc21)C(F)(F)F | 23 | 23
6 | CC(=O)N[C@H]1CCc2cc(O)c(O)c(O)c2-c2ccc(O)c(=O)cc21 | 1.2 | 1.2
7 | COc1cc2c(c(OC)c1O)-c1ccc(O)c(=O)cc1[C@@H](NC(C)=O)CC2 | 0.27 | 0.27
8 | COc1cc2c(c(OC)c1OC)-c1ccc(O)c(=O)cc1[C@@H](NC(=O)C(F)(F)F)CC2 | 0.57 | 0.2
9 | COc1cc(/C=C/C(=O)N[C@H]2CCc3cc(OC)c(OC)c(OC)c3-c3ccc(OC)c(=O)cc32)cc(OC)c1OC | 0.0055 | 0.0055
10 | COc1cc2c(c(OC)c1O)-c1ccc(SC)c(=O)cc1[C@@H](N)CC2 | 1.1 | 1.4
11 | COc1cc2c(c(OC)c1OC)-c1ccc(OC)c(=O)cc1[C@@H](NC(=O)C(F)(F)F)CC2 | 0.0088 | 0.0066
12 | N[C@H]1CCc2cc(O)c(O)c(O)c2-c2ccc(=O)c(O)cc21 | 30 | 50
13 | COc1cc2c(c(OC)c1OC)-c1ccc(OC)c(=O)cc1[C@@H](NC(=O)/C=C/c1ccc(O)c(O)c1)CC2 | 0.29 | 0.29
14 | COc1cc2c(c(OC)c1OC)-c1ccc(=O)c(OC)cc1[C@@H](N)CC2 | 2.8 | 2.8
15 | COc1cc2c(c(OC)c1OC)-c1ccc(=O)c(OC)cc1[C@@H](NC(=O)C(F)(F)F)CC2 | 0.66 | 0.66
16 | COc1cc2c(c(OC)c1O)-c1ccc(SC)c(=O)cc1[C@@H](NC(C)=O)CC2 | 0.047 | 0.052
17 | COc1cc2c(c(OC)c1OC)-c1ccc(N(C)C)c(=O)cc1[C@@H](NC(C)=O)CC2 | 0.085 | 0.085
18 | COc1cc(/C=C/C(=O)N[C@H]2CCc3cc(OC)c(OC)c(OC)c3-c3ccc(OC)c(=O)cc32)cc(OC)c1O | 0.18 | 0.18
19 | COc1cc2c(c(OC)c1OC)-c1ccc(N(C)C)c(=O)cc1[C@@H](N)CC2 | 0.94 | 1.6
20 | COc1cc2c(c(OC)c1O)-c1ccc(OC)c(=O)cc1[C@@H](NC(C)=O)CC2 [2-DESMETHYLCOLCHICIN] | 0.26 | 0.26
21 | COc1cc(C(=O)N[C@H]2CCc3cc(OC)c(OC)c(OC)c3-c3ccc(OC(=O)c4cc(OC)c(OC)c(OC)c4)c(=O)cc32)cc(OC)c1OC | 1.4 | 
